Experimental data from patent US5922683A, “Multicyclic erythromycin derivatives” (Abbott Laboratories, priority 1998, dated 1999).

Legend:
CANDIDA ALBICANS CCH 442 = experiment: In vitro antimicrobial activity (agar dilution MIC); type: cell-based; details: BHI agar, 35-37° C., 20 to 24 hours
Method: (§1) Representative compounds of the present invention were assayed in vitro for antibacterial activity as follows: Twelve petri dishes containing successive aqueous dilutions of the test compound mixed with 10 mL of sterilized Brain Heart Infusion (BHI) agar (Difco 0418-01-5) were prepared. Each plate was inoculated with 1:100 (or 1:10 for slow-growing strains, such as Micrococcus and Streptococcus) dilutions of up to 32 different microorganisms, using a Steers replicator block. The inoculated plates were incubated at 35-37° C. for 20 to 24 hours. In addition, a control plate, using BHI agar containing no test compound, was prepared and incubated at the beginning and end of each test.
(§2) An additional plate containing a compound having known susceptibility patterns for the organisms being tested and belonging to the same antibiotic class as the test compound was also prepared and incubated as a further control, as well as to provide test-to-test comparability. Erythromycin A was used for this purpose.
(§3) After incubation, each plate was visually inspected. The minimum inhibitory concentration (MIC) was defined as the lowest concentration of drug yielding no growth, a slight haze, or sparsely isolated colonies on the inoculum spot as compared to the growth control.

ESCHERICHA COLI SS = experiment: In vitro antibacterial activity (agar dilution MIC); type: cell-based; details: BHI agar, 35-37° C., 20 to 24 hours
Method: as §1, §2, §3

STR[…] PIU 2548 = experiment: as above; type: cell-based; details: BHI agar, 35-37° C., 20 to 24 hours
Method: as §1, §2, §3

STR[…] 930 = experiment: as above; type: cell-based; details: BHI agar, 35-37° C., 20 to 24 hours
Method: as §1, §2, §3

ESCHERICHIA COLI DC-2 = experiment: as above; type: cell-based; details: BHI agar, 35-37° C., 20 to 24 hours
Method: as §1, §2, §3

[1] = tested on: STAPHYLOCOCCUS AUREUS ATCC 6538P; experiment: as above; type: cell-based; details: BHI agar, 35-37° C., 20 to 24 hours
Method: as §1, §2, §3

[2] = tested on: STREPTOCOCCUS PYOGENES EES61; experiment: as above; type: cell-based; details: BHI agar, 35-37° C., 20 to 24 hours
Method: as §1, §2, §3

[3] = tested on: STAPHYLOCOCCUS AUREUS A5177; experiment: as above; type: cell-based; details: BHI agar, 35-37° C., 20 to 24 hours
Method: as §1, §2, §3

[4] = tested on: STAPHYLOCOCCUS AUREUS A-5278; experiment: as above; type: cell-based; details: BHI agar, 35-37° C., 20 to 24 hours
Method: as §1, §2, §3

[5] = tested on: STREPTOCOCCUS BOVIS A-5169; experiment: as above; type: cell-based; details: BHI agar, 35-37° C., 20 to 24 hours
Method: as §1, §2, §3

ESCHERICHIA COLI JUHL = experiment: as above; type: cell-based; details: BHI agar, 35-37° C., 20 to 24 hours
Method: as §1, §2, §3

[6] = tested on: STAPHYLOCOCCUS AUREUS 1775; experiment: as above; type: cell-based; details: BHI agar, 35-37° C., 20 to 24 hours
Method: as §1, §2, §3

Gram-negative bacteria = details: cited from earlier work
[7] = tested on: STAPHYLOCOCCUS AUREUS NCTC10649M; experiment: In vitro antibacterial activity (agar dilution MIC); type: cell-based; details: BHI agar, 35-37° C., 20 to 24 hours
Method: as §1, §2, §3

[8] = tested on: STAPHYLOCOCCUS AUREUS CMX 553; experiment: as above; type: cell-based; details: BHI agar, 35-37° C., 20 to 24 hours
Method: as §1, §2, §3

[9] = tested on: STAPHYLOCOCCUS AUREUS CMX 642A; experiment: as above; type: cell-based; details: BHI agar, 35-37° C., 20 to 24 hours
Method: as §1, §2, §3

[10] = tested on: STAPHYLOCOCCUS EPIDERMIDIS 3519; experiment: as above; type: cell-based; details: BHI agar, 35-37° C., 20 to 24 hours
Method: as §1, §2, §3

[11] = tested on: MYCOBACTERIUM SMEGMATIS ATCC 114; experiment: as above; type: cell-based; details: BHI agar, 35-37° C., 20 to 24 hours
Method: as §1, §2, §3

N. ASTEROIDES ATCC 9970 = experiment: as above; type: cell-based; details: BHI agar, 35-37° C., 20 to 24 hours
Method: as §1, §2, §3

Structure (SMILES) | minimum inhibitory concentration (MIC) (CANDIDA ALBICANS CCH 442) | minimum inhibitory concentration (MIC) (ESCHERICHA COLI SS) | minimum inhibitory concentration (MIC) (STR[…] PIU 2548) | minimum inhibitory concentration (MIC) (STR[…] 930) | minimum inhibitory concentration (MIC) (ESCHERICHIA COLI DC-2) | minimum inhibitory concentration (MIC) [1] | minimum inhibitory concentration (MIC) [2] | minimum inhibitory concentration (MIC) [3] | minimum inhibitory concentration (MIC) [4] | minimum inhibitory concentration (MIC) [5] | minimum inhibitory concentration (MIC) (ESCHERICHIA COLI JUHL) | minimum inhibitory concentration (MIC) [6] | activity against Gram-negative bacteria (Gram-negative bacteria) | minimum inhibitory concentration (MIC) [7] | minimum inhibitory concentration (MIC) [8] | minimum inhibitory concentration (MIC) [9] | minimum inhibitory concentration (MIC) [10] | minimum inhibitory concentration (MIC) [11] | minimum inhibitory concentration (MIC) (N. ASTEROIDES ATCC 9970)
CC[C@H]1OC(=O)[C@H](C)C(=O)[C@H](C)[C@@H](O[C@@H]2O[C@H](C)C[C@H](N(C)C)[C@H]2O)[C@](C)(OC)C[C@@H](C)C2Nc3ccccc3N3C(=O)O[C@@]1(C)[C@H]3[C@H]2C (single isomer, unassigned) [Ex 3] | > 100 | 100 | 25 | > 100 | > 100 | 25 | 3.1 | 25 | > 100 | 1.56 | > 100 | > 100 | – | – | – | – | – | – | –
CC[C@H]1OC(=O)[C@H](C)[C@@H](O[C@H]2C[C@@](C)(OC)[C@@H](O)[C@H](C)O2)[C@H](C)[C@@H](O[C@@H]2O[C@H](C)C[C@H](N(C)C)[C@H]2O)[C@](C)(O)C[C@@H](C)C(=O)[C@H](C)[C@@H](O)[C@]1(C)O [Ery A, Erythromycin A] | – | – | – | – | – | – | – | – | – | – | – | – | only weak activity | – | – | – | – | – | –
CC[C@H]1OC(=O)[C@H](C)C(=O)[C@H](C)[C@@H](O[C@@H]2O[C@H](C)C[C@H](N(C)C)[C@H]2O)[C@](C)(OC)C[C@@H](C)C2=Nc3ccccc3N3C(=O)O[C@@]1(C)[C@H]3[C@H]2C [Ex 2] | > 100 | 1.56 | 0.39 | > 100 | > 100 | 0.39 | 0.1 | 0.39 | > 100 | 0.1 | > 100 | > 100 | – | 0.39 | 0.39 | 0.39 | 0.39 | 3.1 | 0.39
CC[C@H]1OC(=O)[C@H](C)C(=O)[C@H](C)[C@@H](O[C@@H]2O[C@H](C)C[C@H](N(C)C)[C@H]2O)[C@](C)(OC)C[C@@H](C)C2=Nc3cc(C)ccc3N3C(=O)O[C@@]1(C)[C@H]3[C@H]2C [Ex 4] | > 100 | 0.2 | 0.2 | > 100 | > 100 | 0.78 | – | 0.78 | > 100 | – | > 100 | – | – | 0.78 | – | 0.78 | – | 100 | 0.1
CC[C@H]1OC(=O)[C@H](C)C(=O)[C@H](C)[C@@H](O[C@@H]2O[C@H](C)C[C@H](N(C)C)[C@H]2O)[C@](C)(OC)C[C@@H](C)C2=Nc3cc(OC)ccc3N3C(=O)O[C@@]1(C)[C@H]3[C@H]2C [Ex 5] | > 100 | 50 | 0.39 | > 100 | > 100 | 0.78 | 0.02 | 0.78 | > 100 | 0.02 | > 100 | > 100 | – | 0.78 | 0.78 | 0.78 | 0.78 | 1.56 | 0.2
CC[C@H]1OC(=O)[C@H](C)C(=O)[C@H](C)[C@@H](O[C@@H]2O[C@H](C)C[C@H](N(C)C)[C@H]2O)[C@](C)(OC)C[C@@H](C)C2=Nc3cc(C#N)ccc3N3C(=O)O[C@@]1(C)[C@H]3[C@H]2C [Ex 6] | > 100 | 3.1 | 0.39 | > 100 | > 100 | 0.39 | – | – | > 100 | – | > 100 | > 100 | – | 0.39 | 0.39 | 0.39 | 0.2 | 0.1 | 0.39
CC[C@H]1OC(=O)[C@H](C)C(=O)[C@H](C)[C@@H](O[C@@H]2O[C@H](C)C[C@H](N(C)C)[C@H]2O)[C@](C)(OC)C[C@@H](C)C2=Nc3cccnc3N3C(=O)O[C@@]1(C)[C@H]3[C@H]2C [Ex 7] | > 100 | 0.78 | 0.39 | > 100 | > 100 | 0.39 | 0.05 | 0.39 | > 100 | 0.05 | > 100 | > 100 | – | 0.39 | 0.39 | 0.39 | 0.39 | 3.1 | 0.1
C=CCO[C@]1(C)C[C@@H](C)C2=Nc3ccccc3N3C(=O)O[C@](C)([C@@H](CC)OC(=O)[C@H](C)C(=O)[C@H](C)[C@H]1O[C@@H]1O[C@H](C)C[C@H](N(C)C)[C@H]1O)[C@H]3[C@H]2C [Ex 8] | > 100 | 12.5 | 0.78 | > 100 | > 100 | 0.78 | 0.39 | 0.78 | > 100 | 0.1 | > 100 | > 100 | – | 0.78 | 0.78 | 0.78 | – | – | 3.1
